One assay concerns HOSE2C. The assay is described as follows: drug sensitivity score (DSS) from 5-point dose-response viability curve (DSS (area-under-curve based score)); higher = more sensitive (stronger growth inhibition or killing); extreme values may be limits of the assay. The conditions noted are these: exposure time: 72 h; concentration range: 5 concentrations over 10,000-fold range. Summed up:
(§1)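 For the drug sensitivity score, obtained per cell line and drug in Breeze software, larger values mean greater sensitivity. No response corresponds to a score of zero. Ovarian cancer and normal ovarian cells were seeded at 1,500 per well into 384-well plates already holding acoustically dispensed drugs (Echo 550, DMSO or water, five concentrations over a 10,000-fold range) and incubated 3 days at 37°C, 5% CO2. CellTiter-Glo luminescence on a PHERAstar FS gave the viability readout.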
On to `CC(C)[C@H](C(=O)Nc1ccc(C(=O)NO)cc1)c1ccccc1` [AR-42], for which the drug sensitivity score was found to be 16.9. Still for that read-out and setting: with `Cc1sc2c(c1C)C(c1ccc(Cl)cc1)=N[C@@H](CC(=O)Nc1ccc(OCCOCCOCCOCCNc3cccc4c3C(=O)N(C3CCC(=O)NC3=O)C4=O)cc1)c1nnc(C)n1-2` (some centres not stated) [ARV-825] the figure was 7.9; with `COc1cc(N2CCC(N3CCN(C)CC3)CC2)ccc1Nc1ncnc(Nc2ccccc2S(=O)(=O)C(C)C)n1` [ASP3026], 6.4; with `O=C(NC1CCNCC1)c1n[nH]cc1NC(=O)c1c(Cl)cccc1Cl` [AT7519], 8. As to `O=C(Nc1c[nH]nc1-c1nc2ccc(CN3CCOCC3)cc2[nH]1)NC1CC1` [AT9283], the drug sensitivity score amounted to 7.4.

Molecule `CC[C@H](CC#N)OC(=O)N[C@@H](C)c1cccc(NC(=O)Nc2ccc(-c3cnco3)c(OC)c2)c1` [AVN944] displayed a drug sensitivity score of 15.8. Same read-out and setting: with `COc1cc(N2CCN(C)CC2)ccc1Nc1nccc(-c2cn(C)c3cnccc23)n1` [AZ191] the figure was 1.9.

Molecule `COc1cc(OC2CCN(C)CC2)ccc1Nc1ncc2c(n1)n(C1CCCC1)c(=O)n2C` [AZ 3146] showed a drug sensitivity score of 2.4. The same measure, in the same setting: with `CN(C)CCCOc1ccc(-c2ccc3ncc4c(c3c2)n(C2CCOCC2)c(=O)n4C)cn1` [AZD0156] the figure was 0; with `N[C@@H]1CCCN(c2c(/C=C3\SC(=O)NC3=O)cccc2-c2ccccc2)C1` [AZD1208], 0.

On to `Cc1cc(Nc2nc(N[C@@H](C)c3ncc(F)cn3)ncc2Cl)[nH]n1` [AZD1480], for which the drug sensitivity score is 2.8. On the same count and under the same terms, with `COc1cc2ncnc(Nc3cccc(Cl)c3F)c2cc1OC(=O)N1CCN(C)C[C@H]1C` [AZD3759] the figure was 0. The same measure, in the same setting: the result for `Cc1[nH]nc(C(F)(F)F)c1Cc1sc2c(c1C(=O)N1C[C@](C)(O)CO1)c(=O)n(C)c(=O)n2C(C)C` [AZD3965] reads 0. On the same count and under the same terms, with `COc1cc(CCc2cc(NC(=O)c3ccc(N4CC(C)NC(C)C4)cc3)n[nH]2)cc(OC)c1` (configuration not stated) [AZD4547] the figure was 5.8. For the molecule `CN(C)C(=O)c1ccc(S(=O)(=O)c2ccc(NC(=O)[C@@](C)(O)C(F)(F)F)c(Cl)c2)cc1` [AZD7545], the drug sensitivity score was determined as 0.4. Still for that read-out and setting: the result for `NC(=O)Nc1cc(-c2cccc(F)c2)sc1C(=O)N[C@H]1CCCNC1` [AZD7762] reads 7.8.

A further assay deals with OVCAR8. Described as above. Particulars: exposure time: 72 h; concentration range: 5 concentrations over 10,000-fold range. Summed up:
as §1
`CCOc1ccn(-c2ccc(F)cc2)c(=O)c1C(=O)Nc1ccc(Oc2ccnc(N)c2Cl)c(F)c1` showed a drug sensitivity score of 0. On the same count and under the same terms, with `CCn1c(C(=O)N(C2CC2)C2CC2)cc2c3c(ncn3C)c(Nc3cc(C)n(C)n3)nc21` the figure was 0. As to `C[C@@]1(C(=O)Nc2ccc(F)nc2)CCCN1c1nc(Nc2cc(C3CC3)n[nH]2)c2cccn2n1`, the drug sensitivity score amounted to 5.2. The same measure, in the same setting: with `Cc1c(-c2ccc(N3CCc4cccc(C(=O)Nc5nc6ccccc6s5)c4C3)nc2C(=O)O)cnn1CC12CC3CC(CC(C3)C1)C2` the figure was 0.8; with `Cc1nn(C)c(COc2ccc(N3CCN(S(=O)(=O)N(C)C)CC3)cc2)c1-c1cccc2c(CCCOc3cccc4ccccc34)c(C(=O)O)n(CCN3CCOCC3)c12`, 7.4; with `O=c1[nH]c(C2CCCN2)nc2c1oc1ccc(Cl)cc12` (configuration not stated), 0.

`COc1ccc(C[C@H](NC(=O)[C@H](C)NC(=O)CN2CCOCC2)C(=O)N[C@@H](Cc2ccccc2)C(=O)C2(C)CO2)cc1` (stereo in doubt) [ONX-0914] returned a drug sensitivity score of 17.7.

Regarding `CC/C(=C(\c1ccc(O)cc1)c1ccc(OCCN(C)C)cc1)c1ccccc1` [4-hydroxytamoxifen], the drug sensitivity score was 2.6. Same read-out and setting: with `Nc1ncnc2c1nc(N)n2[C@@H]1O[C@H](CO)[C@@H](O)[C@H]1O` [8-amino-adenosine] the figure was 20.5. Still for that read-out and setting: with `Nc1ncnc2c1nc(Cl)n2[C@@H]1O[C@H](CO)[C@@H](O)[C@H]1O` [8-chloro-adenosine] the figure was 13.2; with `COc1cc2c(cc1OCCCN1CCCC1)N=C(N)C21CCC1` [A-366], 1; with `COc1ccc(S(=O)(=O)Nc2cccnc2Nc2ccc(O)cc2)cc1` [ABT-751], 11.5.

Molecule `C[C@H](Nc1ncnc2[nH]cnc12)c1cc2ccc(F)cc2nc1-c1ccccn1` [AMG319] had a drug sensitivity score of 0. Same read-out and setting: the result for `COCCOc1cnc2ccn([C@H](C)c3nnc4c(F)cc(-c5cnn(C)c5)cn34)c(=O)c2c1` [AMG-337] reads 0.

For `CC1CCC(n2c3cnccc3c3cnc(Nc4ccc5c(n4)CCN(C(=O)CO)C5)nc32)CC1` (configuration not stated) [AMG-925], the drug sensitivity score came to 0.

On to `CC(C)[C@H](C(=O)Nc1ccc(C(=O)NO)cc1)c1ccccc1` [AR-42], for which the drug sensitivity score stood at 16.8. On the same count and under the same terms, the result for `Cc1sc2c(c1C)C(c1ccc(Cl)cc1)=N[C@@H](CC(=O)Nc1ccc(OCCOCCOCCOCCNc3cccc4c3C(=O)N(C3CCC(=O)NC3=O)C4=O)cc1)c1nnc(C)n1-2` (some centres not stated) [ARV-825] reads 15.5. On the same count and under the same terms, the result for `COc1cc(N2CCC(N3CCN(C)CC3)CC2)ccc1Nc1ncnc(Nc2ccccc2S(=O)(=O)C(C)C)n1` [ASP3026] reads 4.3. Same read-out and setting: the result for `O=C(NC1CCNCC1)c1n[nH]cc1NC(=O)c1c(Cl)cccc1Cl` [AT7519] reads 15.5; that for `O=C(Nc1c[nH]nc1-c1nc2ccc(CN3CCOCC3)cc2[nH]1)NC1CC1` [AT9283], 3.1; that for `CC[C@H](CC#N)OC(=O)N[C@@H](C)c1cccc(NC(=O)Nc2ccc(-c3cnco3)c(OC)c2)c1` [AVN944], 11.1. The molecule `COc1cc(N2CCN(C)CC2)ccc1Nc1nccc(-c2cn(C)c3cnccc23)n1` [AZ191] showed a drug sensitivity score of 2.2. The same measure, in the same setting: with `COc1cc(OC2CCN(C)CC2)ccc1Nc1ncc2c(n1)n(C1CCCC1)c(=O)n2C` [AZ 3146] the figure was 4.6. On the same count and under the same terms, the result for `CN(C)CCCOc1ccc(-c2ccc3ncc4c(c3c2)n(C2CCOCC2)c(=O)n4C)cn1` [AZD0156] reads 0; that for `N[C@@H]1CCCN(c2c(/C=C3\SC(=O)NC3=O)cccc2-c2ccccc2)C1` [AZD1208], 0.1. Same read-out and setting: the result for `Cc1cc(Nc2nc(N[C@@H](C)c3ncc(F)cn3)ncc2Cl)[nH]n1` [AZD1480] reads 0; that for `COc1cc2ncnc(Nc3cccc(Cl)c3F)c2cc1OC(=O)N1CCN(C)C[C@H]1C` [AZD3759], 0.

The molecule `Cc1[nH]nc(C(F)(F)F)c1Cc1sc2c(c1C(=O)N1C[C@](C)(O)CO1)c(=O)n(C)c(=O)n2C(C)C` [AZD3965] came in with a drug sensitivity score of 0. With `COc1cc(CCc2cc(NC(=O)c3ccc(N4CC(C)NC(C)C4)cc3)n[nH]2)cc(OC)c1` (configuration not stated) [AZD4547], the drug sensitivity score amounted to 0. Same read-out and setting: with `CN(C)C(=O)c1ccc(S(=O)(=O)c2ccc(NC(=O)[C@@](C)(O)C(F)(F)F)c(Cl)c2)cc1` [AZD7545] the figure was 2.2; with `NC(=O)Nc1cc(-c2cccc(F)c2)sc1C(=O)N[C@H]1CCCNC1` [AZD7762], 5.2.
